These are literature values, as cited in the CATMoS acute toxicity set (Mansouri et al. 2021).

“And” between values parts separate entries of the source, which are not always exact repeats. Equal values may be shown once.

A short description of the data set: rat acute oral toxicity. Conditions: in vivo. From the text:
[…]The data set underlying the modeling effort for this project was initially compiled by NICEATM and U.S. EPA’s CCTE. Briefly, LD50 data were collected from rat acute oral systemic toxicity tests, including limit tests, ranges/confidence intervals, and discrete LD50 values. The full data set included 21,200 LD50 entries for 15,688 substances. […] Data were reviewed to ensure that LD50 values with obvious errors in the extracted data such as unit conversion errors (e.g., comma and decimal separator misplacements) were either fixed or removed. After this review, 16,209 LD50 values remained. Many of the chemicals represented had multiple LD50 entries, requiring that a single representative value per Chemical Abstracts Service Registry Number (CASRN) identifier be defined to facilitate modeling efforts. Based on ATWG feedback and to define the representative LD50 as a protective value while accounting for the distribution across multiple LD50s, the median of the lowest quartile was computed using only discrete LD50 values (omitting limit test data and range and confidence interval data). A detailed summary of the data compilation is available online on the NICEATM webpage dedicated to the collaborative modeling project (NTP 2020).
[…][…] For categorical designations, limit test and range/confidence interval LD50 data were integrated wherever possible. As such, the number of chemicals with end point values/calls varies across the modeling end points (Table 3) based on whether chemicals had representative LD50 values and/or other data. If a chemical had both, the representative value was used to determine categorical calls rather than limit test data. Some data were useable only for certain end points and categories depending on the thresholds. For example, ranges that spanned multiple hazard categories were considered only for the binary (very toxic/nontoxic) end points and omitted from rendering a determination for hazard category assignment.
[…]The final data set comprising 11,992 chemicals was split into training and evaluation sets […], respectively. This process was performed semirandomly by ordering chemicals based on the five end points (categorical and continuous LD50 values) and partitioning every fourth record into the evaluation set accordingly. This approach was taken to ensure an equivalent distribution of the LD50 values and the different hazard categories between the training and the evaluation sets without supervised sampling of the chemicals based on structures (Figure 1A). The sources of the chemical structures were also kept equivalent between the two sets, with chemical structures obtained from DSSTox, being the highest quality, representing over 75% of each set (Figure 1B).
Regarding `CC(C)OC(=O)OOC(=O)OC(C)C`, the LD50 was 2140 mg/kg.

As for `CCCOC(=O)Nc1ccco1`, the LD50 is 1600 mg/kg.

Turning to `Cc1cccc(C)c1NC(=O)CN1CCCC1=O`, the LD50 was 1180 mg/kg.

As for `Nc1ccc(N=Nc2ccccc2)c(N)n1`, the 50% lethal dose (LD50) was 472 mg/kg and 403 mg/kg.

With `CCC(CN)=C(c1ccccc1)c1ccccc1`, the LD50 was 148 mg/kg.

As for `FC(F)(F)c1nc2c(Cl)cc(Cl)c(Cl)c2[nH]1`, the LD50 was 6.33 mg/kg.

On to `CC(=O)OC(OC(C)=O)C(Cl)CCl` (stereo unspecified), for which the LD50 was 320 mg/kg.

Consider `CNC(=O)Oc1cc(C(C)C)ccc1Cl`, for which the LD50 is 21 mg/kg.

As for `COC(C)N(C)N=O` (stereo unspecified), the LD50 is 240 mg/kg.

As for `ClCC=CCCl`, the 50% lethal dose (LD50) was 89 mg/kg.

In the case of `C#CC(C)(O)C(O)c1ccccc1` (stereo unspecified), the LD50 was 730 mg/kg.

Turning to `CCSCC`, the 50% lethal dose (LD50) is 3420 mg/kg.

Consider `CCN(CC)CCN(C)n1cc(-c2ccccc2)c2ccccc21`, for which the LD50 is 650 mg/kg.

For the compound `COCCl`, the LD50 was 500 mg/kg.

Take `CCS(=O)CC`: the LD50 is 5650 mg/kg.

As for `CCOC(=O)c1ccc(N)cc1`, the median lethal dose (LD50) was 3040 mg/kg.

With `Nc1ccc(Cc2ccc(N)cc2)cc1`, the LD50 is 517 mg/kg.

In the case of `COc1ccc(OC)c(NC(=O)CNC(=O)Cc2ccc(C(=O)c3ccc(C)cc3)n2C)c1`, the LD50 is 1470 mg/kg.

As to `CCCCC(C)(C)O[Si](OC(C)(C)CCCC)(OC(C)(C)CCCC)OC(C)(C)CCCC`, the LD50 is 60300 mg/kg.

For the compound `CN(C(O)=NC(C)(C)c1ccccc1)c1ccccc1`, the LD50 was 6130 mg/kg.

Regarding `Fc1ccccc1`, the LD50 is 4400 mg/kg.

Regarding `CC(=Nc1c(I)cc(I)c(C(=O)NCC(C)C(=O)O)c1I)N1CCOCC1` (stereo unspecified), the LD50 was 15000 mg/kg and 7000 mg/kg.

Turning to `N=C(N)NCC1CCC(C(=O)Oc2ccccc2C(=O)OCc2ccccc2)CC1` (stereo unspecified), the LD50 is 8010 mg/kg.

For the compound `CC(C)COCC(C)O` (stereo unspecified), the LD50 was 4290 mg/kg.

As to `CCOC(=O)CCC(=O)CC1(O)C2(Cl)C3(Cl)C4(Cl)C(Cl)(Cl)C5(Cl)C3(Cl)C1(Cl)C5(Cl)C42Cl` (stereo unspecified), the LD50 was 240 mg/kg.

With `O=c1[nH]ncc2ccccc12`, the LD50 was 370 mg/kg.

In the case of `N#CN`, the LD50 is 1620 mg/kg.

As for `COCCOc1cnc(NS(=O)(=O)c2ccccc2)nc1`, the LD50 is 3100 mg/kg.

For `Cc1cc(=NC(=O)c2ccccc2O)n(-c2ccccc2)n1C`, the LD50 is 1270 mg/kg.

As for `CCCCNCCCCCCN`, the LD50 was 536 mg/kg.

For `Clc1nc(Cl)c(Cl)[nH]1`, the LD50 was 11 mg/kg.

As for `FC(F)(Cl)C(Cl)Cl`, the LD50 was 3290 mg/kg.

Turning to `CNc1nsc2ccccc12`, the LD50 was 576 mg/kg.

`Cc1ccc(S(=O)(=O)NN)cc1`: the median lethal dose (LD50) was 283 mg/kg.

Regarding `Cc1nc(N)sc1C(=O)Nc1ccccc1`, the median lethal dose (LD50) was 1410 mg/kg.

On to `CN[C@@H]1[C@H](O[C@H]2[C@H](O[C@H]3[C@H](O)[C@@H](O)[C@H](NC(=N)N)[C@@H](O)[C@@H]3NC(=N)N)O[C@@H](C)[C@]2(O)C=O)O[C@@H](CO)[C@H](O)[C@H]1O`, for which the LD50 was 9000 mg/kg.

Regarding `COP(=S)(OC)OC1CC(C)CCC1C(C)C` (stereo unspecified), the LD50 was 750 mg/kg.

With `C=CCOC(=O)CC#N`, the LD50 is 160 mg/kg.

Take `Nc1ncnc(Nc2cccc(Cl)c2)n1`: the LD50 is 400 mg/kg.

`C=COCCOCCOC=C`: the LD50 was 3730 mg/kg.

Turning to `CNC(=O)ON=C1SC(=NC(C)(C)C)SC1(C)C`, the LD50 is 31.5 mg/kg.

`O=P(OC=C(Cl)Cl)(OCCCl)OCCCl`: the LD50 is 25 mg/kg.

On to `C/C=C/C=C/C=O`, for which the LD50 is 300 mg/kg.

In the case of `C[C@]12CCC(=O)C=C1CC[C@@H]1[C@@H]2[C@@H](O)C[C@@]2(C)[C@H]1CC[C@]2(O)C(=O)COP(=O)(O)O`, the LD50 is 6100 mg/kg.

Take `CCCN(COC(C)=O)N=O`: the 50% lethal dose (LD50) is 1000 mg/kg.

With `COP(=S)(OC)Oc1cc(C)ccc1C(C)C`, the median lethal dose (LD50) is 750 mg/kg.

Turning to `C=CCSSCC=C`, the 50% lethal dose (LD50) is 260 mg/kg.

Turning to `O=C(c1ccccc1)c1ccc2n1CC[C@H]2C(=O)O`, the LD50 is 189 mg/kg.

In the case of `COP(=S)(OC)OC1CCCCC1`, the LD50 was 2900 mg/kg.

With `CC(C)CC(C)CC(=O)O` (stereo unspecified), the LD50 was 900 mg/kg.

In the case of `CN1CCc2ccccc21`, the LD50 was 1250 mg/kg.

As usually defined, the LD50 is the dose expected to kill half of the subjects tested.
